In patent US10694724B2, “Transgenic mouse for the assessment of thyroid hormone (TH) action” (MAGYAR TUDOMÁNYOS AKADÉMIA KÍSÉRLETI ORVOSTUDOMÁNYI KUTATÓ …, priority 2014, dated 2020):
“Also recorded” adds a separate entry of the source.

Tests used:
Assay type in all cases: in vivo, mouse
[1] = system: thyroid hormone (TH) action (3xTRE-TK driven Luciferase reporter); test: Luciferase activity (luciferase assay) in tissues of THAIM line #18 mice
Procedure: Characterization of the #4, 18 and 23 lines identified thyroid hormone (5 ug of T4/day/mouse for 3 days) induced induction of Luciferase expression in various tissues of homozygote males.
Basal and thyroid hormone induced values and fold changes (induced/basal) of Luciferase activities in tissues of sacrificed animals (Mean±SEM, n=4). P values oft test (basal vs. induced) are provided, * represents statistical significance. (A, B, C) T4 treatment (5 ug/mouse/day for 3 days; i.p.) in mouse lines #4, 18, and 23. Basal activity levels in #18 are higher than other two lines. […] All experiments were performed on homozygote males.
(FIG. 4). Unilateral denervation of sympathetic nerves innervating the iBAT has been performed as described in (32). Measurement of the activity of type 2 deiodinase was performed according to the American Thyroid Association Guide to investigating thyroid hormone economy and action in rodent and cell models (33)). THAIM #4 mice underwent unilateral denervation of sympathetic nerves innervating the BAT. Luciferase activity assay was performed using our established protocol (34) modified for tissue samples. […] This increase was abolished by denervation but TH action was maintained at room temperature (intact vs. denervated). (A). In the denervated samples, this was paralleled by abolished response of D2 activity to cold and maintenance of the basal D2 activity in the denervated lobe at room temperature (B).

[2] = system: thyroid hormone (TH) action (3xTRE-TK driven Luciferase reporter); test: Luciferase activity (luciferase assay) in tissues of THAIM line #23 mice; conditions: for Fold (mean ± SEM), induced/basal Luciferase activity / induced Luciferase activity: line #23, T4 5 ug/mouse/day for 3 days i.p.
Procedure: (§1) (A, B, C) T4 treatment (5 ug/mouse/day for 3 days; i.p.) in mouse lines #4, 18, and 23. […] All experiments were performed on homozygote males.
(§2) Unilateral denervation of sympathetic nerves innervating the iBAT has been performed as described in (32). Measurement of the activity of type 2 deiodinase was performed according to the American Thyroid Association Guide to investigating thyroid hormone economy and action in rodent and cell models (33)). THAIM #4 mice underwent unilateral denervation of sympathetic nerves innervating the BAT. Luciferase activity assay was performed using our established protocol (34) modified for tissue samples.

[3] = system: thyroid hormone (TH) action (3xTRE-TK driven Luciferase reporter); test: Luciferase activity (luciferase assay) in tissues of THAIM line #4 mice; conditions: for Fold (mean ± SEM), induced/basal Luciferase activity / induced Luciferase activity: line #4, T4 5 ug/mouse/day for 3 days i.p.
Procedure: as §1, §2

[4] = system: thyroid hormone receptor isoform specific action (TRβ dominant liver, TRα dominant heart; Luciferase reporter); test: Testing TR isoform specific agonists: Luciferase activity in liver and heart of line #4 with decreased endogenous thyroid hormone; conditions: i.p. 1.53 nM/g BW, after 24 hours
Procedure: FIG. 7. The transgenic mouse model is capable to detect thyroid hormone receptor isoform specific T3 actions. […] Mean±SEM (n=5) ** p<0.01 by t test.
We decreased the endogenous thyroid hormone levels in line #4 by administering methimazole and perchlorate (0.1% methimazole, 0.5% perchlorate) in the drinking water followed by the i.p. injection of 1.53 nM/g BW of GC-24, a TRβ specific agonist (35). Luciferase activity assay was performed using our established protocol (34) modified for tissue samples, that included treatment of mouse tissue with liquid nitrogen, followed by sonication. In vivo Luciferase imaging has been performed on an IVIS Lumina II In vivo Imaging System (PerkinElmer Waltham, Mass., USA) according to the instructions of the manufacturer.

[5] = line #18, Cerebellum, T4 5 ug/mouse/day for 3 days i.p.
[6] = line #18, Cortex, T4 5 ug/mouse/day for 3 days i.p.
[7] = line #18, HC, T4 5 ug/mouse/day for 3 days i.p.
[8] = line #18, HT, T4 5 ug/mouse/day for 3 days i.p.
[9] = line #18, MBH, T4 5 ug/mouse/day for 3 days i.p.
[10] = line #18, Pit, T4 5 ug/mouse/day for 3 days i.p.
[11] = Mandibular salivatory gland (MSG)

Compound: N[C@@H](Cc1cc(I)c(Oc2cc(I)c(O)c(I)c2)c(I)c1)C(=O)O [T4, thyroxine]
- Fold (mean ± SEM), induced/basal Luciferase activity [1, 5]: 1.8 ± 0.31 Fold
- induced Luciferase activity [1, 5]: 0.063 RLU/mg protein
- Fold (mean ± SEM), induced/basal Luciferase activity [1, 6]: 1.9 ± 1.18 Fold
- induced Luciferase activity [1, 6]: 2.586 RLU/mg protein
- Fold (mean ± SEM), induced/basal Luciferase activity [1, 7]: 2.1 ± 0.25 Fold
- induced Luciferase activity [1, 7]: 3.756 RLU/mg protein
- Fold (mean ± SEM), induced/basal Luciferase activity [1, 8]: 2.8 ± 0.35 Fold
- induced Luciferase activity [1, 8]: 1.589 RLU/mg protein
- Luciferase activity (basal and induced) ([1]; line #18, Liver (cell also covers Heart, iBAT, Bone, Muscle, MSG, Thyroid, Testicle, Intestine), T4 5 ug/mouse/day for 3 days i.p.): no expression
- Fold (mean ± SEM), induced/basal Luciferase activity [1, 9]: 2.2 ± 0.25 Fold
- induced Luciferase activity [1, 9]: 0.602 RLU/mg protein
- Fold (mean ± SEM), induced/basal Luciferase activity [1, 10]: 8.2 ± 0.36 Fold
- induced Luciferase activity [1, 10]: 0.540 RLU/mg protein
- response of Luciferase expression in the pituitary ([1]; line #18 homozygote males, 5 ug of T4/day/mouse for 3 days): intense response
- Fold (mean ± SEM), induced/basal Luciferase activity ([2]; Bone): 0.9 ± 0.56 Fold
- induced Luciferase activity ([2]; Bone): 0.011 RLU/mg protein
- Fold (mean ± SEM), induced/basal Luciferase activity ([2]; CER): 1.9 ± 0.28 Fold
- induced Luciferase activity ([2]; CER): 0.023 RLU/mg protein
- Fold (mean ± SEM), induced/basal Luciferase activity ([2]; CTX): 1.8 ± 0.21 Fold
- induced Luciferase activity ([2]; CTX): 0.065 RLU/mg protein
- Fold (mean ± SEM), induced/basal Luciferase activity ([2]; HC): 1.1 ± 0.32 Fold
- induced Luciferase activity ([2]; HC): 0.040 RLU/mg protein
- Fold (mean ± SEM), induced/basal Luciferase activity ([2]; HT): 2.7 ± 1.35 Fold
- induced Luciferase activity ([2]; HT): 0.144 RLU/mg protein
- Fold (mean ± SEM), induced/basal Luciferase activity ([2]; Heart): 1.0 ± 0.47 Fold
- induced Luciferase activity ([2]; Heart): 0.003 RLU/mg protein
- Fold (mean ± SEM), induced/basal Luciferase activity ([2]; Liver): 1.7 ± 0.19 Fold
- induced Luciferase activity ([2]; Liver): 0.004 RLU/mg protein
- Fold (mean ± SEM), induced/basal Luciferase activity ([2]; MBH): 1.7 ± 0.29 Fold
- induced Luciferase activity ([2]; MBH): 0.240 RLU/mg protein
- Fold (mean ± SEM), induced/basal Luciferase activity ([2]; Muscle): 0.7 ± 0.18 Fold
- induced Luciferase activity ([2]; Muscle): 0.003 RLU/mg protein
- Fold (mean ± SEM), induced/basal Luciferase activity ([2]; Pit): 8.8 ± 0.62 Fold
- induced Luciferase activity ([2]; Pit): 16.926 RLU/mg protein
- Fold (mean ± SEM), induced/basal Luciferase activity ([2]; iBAT): 7.2 ± 1.54 Fold
- induced Luciferase activity ([2]; iBAT): 0.038 RLU/mg protein
- response of Luciferase expression in the pituitary and hypothalamus ([2]; line #23 homozygote males, 5 ug of T4/day/mouse for 3 days): intense response
- Fold (mean ± SEM), induced/basal Luciferase activity ([3]; Bone): 2.2 ± 0.18 Fold
- induced Luciferase activity ([3]; Bone): 0.066 RLU/mg protein
- Fold (mean ± SEM), induced/basal Luciferase activity ([3]; Cerebellum (CER)): 2.3 ± 0.41 Fold
- induced Luciferase activity ([3]; Cerebellum (CER)): 2.162 RLU/mg protein
- Fold (mean ± SEM), induced/basal Luciferase activity ([3]; Cortex (CTX)): 1.9 ± 0.30 Fold
- induced Luciferase activity ([3]; Cortex (CTX)): 0.359 RLU/mg protein
- Fold (mean ± SEM), induced/basal Luciferase activity ([3]; Heart): 8.5 ± 0.31 Fold
- induced Luciferase activity ([3]; Heart): 0.030 RLU/mg protein
- Fold (mean ± SEM), induced/basal Luciferase activity ([3]; Hippocampus (HC)): 1.9 ± 0.03 Fold
- induced Luciferase activity ([3]; Hippocampus (HC)): 0.116 RLU/mg protein
- Fold (mean ± SEM), induced/basal Luciferase activity ([3]; Hypothalamus (HT)): 1.3 ± 0.08 Fold
- induced Luciferase activity ([3]; Hypothalamus (HT)): 0.488 RLU/mg protein
- Fold (mean ± SEM), induced/basal Luciferase activity ([3]; Intestine): 2.1 ± 0.30 Fold
- induced Luciferase activity ([3]; Intestine): 9.480 RLU/mg protein
- Fold (mean ± SEM), induced/basal Luciferase activity ([3]; Liver): 1.9 ± 0.14 Fold
- induced Luciferase activity ([3]; Liver): 0.005 RLU/mg protein
- Fold (mean ± SEM), induced/basal Luciferase activity [3, 11]: 7.6 ± 2.60 Fold
- induced Luciferase activity [3, 11]: 0.399 RLU/mg protein
- Fold (mean ± SEM), induced/basal Luciferase activity ([3]; Mediobasal Hypothalamus (MBH)): 1.8 ± 0.20 Fold
- induced Luciferase activity ([3]; Mediobasal Hypothalamus (MBH)): 0.368 RLU/mg protein
- Fold (mean ± SEM), induced/basal Luciferase activity ([3]; Muscle): 11.2 ± 5.7 Fold
- induced Luciferase activity ([3]; Muscle): 0.276 RLU/mg protein
- Fold (mean ± SEM), induced/basal Luciferase activity ([3]; Pituitary (Pit)): 2.3 ± 0.16 Fold
- induced Luciferase activity ([3]; Pituitary (Pit)): 0.791 RLU/mg protein
- Fold (mean ± SEM), induced/basal Luciferase activity ([3]; Skin): 4.0 ± 0.76 Fold
- induced Luciferase activity ([3]; Skin): 2.798 RLU/mg protein
- Fold (mean ± SEM), induced/basal Luciferase activity ([3]; Testicle): 0.8 ± 0.06 Fold
- induced Luciferase activity ([3]; Testicle): 4.09 RLU/mg protein
- Fold (mean ± SEM), induced/basal Luciferase activity ([3]; Thyroid): 1.5 ± 0.07 Fold
- induced Luciferase activity ([3]; Thyroid): 0.176 RLU/mg protein
- Fold (mean ± SEM), induced/basal Luciferase activity ([3]; iBAT): 64.6 ± 8.1 Fold
- induced Luciferase activity ([3]; iBAT): 1.820 RLU/mg protein
- induction of Luciferase expression in the BAT ([3]; line #4 homozygote males, 5 ug of T4/day/mouse for 3 days): striking response

Compound: Cc1cc(OCC(=O)O)cc(C)c1Cc1ccc(O)c(Cc2ccccc2)c1 [GC-24]
- Luciferase activity in heart ([4]; TRα isoform dominant heart): did not change; also recorded: no significant change
- Luciferase activity in liver ([4]; TRβ isoform dominant liver): significantly increased
